One data set has as its system female white mice. The experiment in a line: in vivo. Particulars: oral; for LD50 / Catatonia ED50 / Exploratory Loss Visual ED50 / Muscle Tone ED50 / Ptosis ED50 / Reflexes Grip ED50 / Reflexes Lift ED50 / Reflexes Pinna ED50 / Tremors ED50: Table 1; for LD50: 24-hour value; for Catatonia ED50 / Exploratory Loss Visual ED50 / Muscle Tone ED50 / Ptosis ED50 / Reflexes Grip ED50 / Reflexes Lift ED50 / Reflexes Pinna ED50 / Tremors ED50 / ED50: mice; for ED50: Mus musculus, po. The procedure: (§1) Groups of five Carworth CF1 S female mice, 16-20 g each, were fasted 16-22 hours before use. The mice were put in opaque plastic "shoe-box" cages 15-30 min. before injection, and then treated orally with 4, 12, 36, 108 and 324 mg/kg of the compound to be tested as a 13 mg/ml solution in 1% aqueous distilled water solution of methylcellulose (Methocel®). Each dose was given in a standard volume of 0.45 ml. Observations were made at 0.5, 2 and 24 hours after dosing. ED50 values were calculated for each parameter including death (LD50). The ED50 and LD50 values are the doses at which 50% of the naimals would be expected to respond.
(§2) The mouse is placed on a stainless steel wire mesh screen (8 × 12 inches, 3 mesh per inch, 1/4 inch mesh openings) "shoe-box" lid (1 inch high) and is observed for normal activities, such as nose movements, head movements with apparent visual examination of the area, and/or walking around on the screen. Absence of or marked depression of these activities for 5 seconds constitutes loss of exploratory activity.
(§3) The mouse is picked up by the tail and placed on the screen with its head facing the observer. Bilateral eyelid closure of 50% or more two seconds after placement is considered ptosis.
(§4) The mouse is placed with its front paws on the edge of a stainless steel "shoe-box" cover, 1 inch high, covered with adhesive tape. Failure to remove both paws from the cover's edge within 5 seconds constitutes catatonia.
(§5) The observer gently strokes the abdominal musculature of the mouse with thumb and forefinger. Flaccidity (or rarely, tenseness) is recorded.
(§6) The mouse is gently swung by the tail toward a horizontal 12 gauge wire tautly stretched 25 cm above the bench. After the mouse grasps the wire with its forepaws, its posterior end is held directly below the wire. A normal mouse grasps the wire with its forepaws and immediately lifts its hind limbs to the wire. Failure to grasp the wire with the forepaws in both trials constitutes loss of the grip reflex; failure to lift the hind limbs to grasp the wire with at least one hind paw within 5 seconds constitutes loss of the lift reflex.
(§7) The mouse is placed on the bar 10-20 cm horizontally and 9 cm vertically from a Galton whistle adjusted for 13 kc (5 mm on the whistle scale) and is subjected to several short bursts of sound.
(§8) An effective tranquilizer should induce little or no tremor response. […] Tremors include fine or coarse and intermittent or continuous tremors.

Data set [1] concerns phenylquinone-induced writhing. Briefly: Phenylquinone writhing test (analgesia). It counts as in vivo, mouse (Carworth CF1 S female). Particulars: for ED50: Mus musculus, po, Table 1, mice; for Phenylquinone Analgesia ED50: Table 1, oral, mice. The source says: This mouse test is predictive of analgesic response in humans. [E. Siegmund, R. Cadmus and G. Lee, Proc. Soc.
ED50 values were obtained graphically from the data.

The nature of a further data set: in vivo. Particulars: mouse, in vivo, po. The procedure:
as §1, §2, §3, §4, §5, §6, §7, §8

Setting [2] is: read-out: Catatonia ED50, Table 1.
[3] abbreviates: read-out: Exploratory Loss Visual ED50, Table 1.
The mark [4] stands for this setting: read-out: Muscle Tone ED50, Table 1.
The mark [5] stands for this setting: read-out: Reflexes Grip ED50, Table 1.
Where [6] appears, read: read-out: Reflexes Lift ED50, Table 1.
Where [7] appears, read: read-out: Reflexes Pinna ED50, Table 1.
Setting [8] is: read-out: Catatonia ED50, Table III.
Setting [9] is: read-out: Exploratory Loss Visual ED50, Table III.
Setting [10] is: read-out: Muscle Tone ED50, Table III.
[11] abbreviates: read-out: Ptosis ED50, Table III.
Setting [12] is: read-out: Reflexes Grip ED50, Table III.
[13] abbreviates: read-out: Reflexes Lift ED50, Table III.
The mark [14] stands for this setting: read-out: Reflexes Pinna ED50, Table III.

What is called LD50 is the dose at which mortality reaches 50%. Higher therefore signals a less toxic substance. Usually ED50 stands for the dose that gives a 50% effect, or the effect in half of the subjects.

Structures can show the parent of a compound that is named as a salt. Where two headings read alike, the source gives them in different places.

With “5- and 11-Chloro-2-cyclohexylmethyl-2,3,8,12b-tetrahydro-1H-3a,8-methanodibenzo[3,4:6,7]cyclohepta[1,2-c]pyrrole [Example 44]”, in the data set on female white mice, the median lethal dose (LD50) is > 324 mg/kg, the “Catatonia ED50” value is given as 19 mg/kg, the “Exploratory Loss Visual ED50” value is listed as 17 mg/kg and the “Muscle Tone ED50” value came to 12 mg/kg. In the data set with female white mice, the “Ptosis ED50” value is listed as < 3 mg/kg, the “Reflexes Grip ED50” value is listed as > 324 mg/kg, the “Reflexes Lift ED50” value is reported as 36 mg/kg and the “Reflexes Pinna ED50” value is recorded as 11 mg/kg. In addition, the “Tremors ED50” value in the data set on female white mice is on record as > 324 mg/kg.
On to “5- and 11-Chloro-2-methyl-2,3,8,12b-tetrahydro-1H- 3a,8-methanodibenzo[3,4:6,7]cyclohepta[1,2-c]pyrrole [Example 43]”, for which, in the data set with female white mice, the LD50 stood at 200 mg/kg, the “Catatonia ED50” value was 100 mg/kg, the “Exploratory Loss Visual ED50” value is on record as 7 mg/kg and the “Muscle Tone ED50” value came to 20 mg/kg. Besides, in the data set on female white mice, the “Ptosis ED50” value was 20 mg/kg, the “Reflexes Grip ED50” value is recorded as 60 mg/kg, the “Reflexes Lift ED50” value came to 20 mg/kg and the “Reflexes Pinna ED50” value amounted to 20 mg/kg. Further, the “Tremors ED50” value in the data set with female white mice is recorded as 36 mg/kg.
On to `c1ccc2c(c1)[C@@H]1C[C@@]3(CN(CC4CCCC4)C[C@H]23)c2ccccc21` (relative stereo) [Cyclopentylmethyl (free base), 2-Cyclopentylmethyl-2,3,8,12b-tetrahydro-1H-3a,8-methanodibenzo[3,4:6,7]cyclohepta[1,2-c]pyrrole], for which the ED50 was < 130 mg/kg in data set [1]; 7 mg/kg with female white mice (setting [2]); < 3 mg/kg in the data set on female white mice (setting [3]); < 3 mg/kg in the data set with female white mice (setting [4]); < 3 mg/kg in the data set on female white mice (read-out: Ptosis ED50, Table 1); 260 mg/kg in the data set with female white mice (setting [5]). The median effective dose (ED50) in the data set with female white mice (setting [6]) was 4.5 mg/kg; with female white mice (setting [7]) it was < 3 mg/kg. In “in vivo”, the LD50 at 24 h is > 324 mg/kg.
`C1=CCCC(CN2C[C@@H]3c4ccccc4[C@@H]4C[C@@]3(C2)c2ccccc24)CC1` (relative stereo) [Example 33, 2-(4-Cycloheptenylmethyl)-2,3,8,12b-tetrahydro-1H-3a,8-methanodibenzo[3,4:6,7]cyclohepta[1,2-c]pyrrole]: the ED50 in data set [1] was 3.3 mg/kg; in “in vivo” it was > 324 mg/kg; in the data set on female white mice (setting [2]), 11 mg/kg; in the data set with female white mice (setting [3]), 9 mg/kg; in the data set with female white mice (setting [4]), 7 mg/kg; with female white mice (read-out: Ptosis ED50, Table 1), 4 mg/kg. The ED50 was > 324 mg/kg with female white mice (setting [5]), 19 mg/kg in the data set with female white mice (setting [6]) and 37 mg/kg in the data set on female white mice (setting [7]). In addition, the LD50 at 24 h in the data set “in vivo” is > 324 mg/kg.
For `c1ccc2c(c1)[C@@H]1C[C@@]3(CN(CC4CCCCCCC4)C[C@H]23)c2ccccc21` (relative stereo) [Example 34, 2-Cyclooctylmethyl-2,3,8,12b-tetrahydro-1H-3a,8-methanodibenzo[3,4:6,7]cyclohepta[1,2-c]pyrrole], the ED50 in data set [1] was 6 mg/kg; in “in vivo”, > 324 mg/kg; with female white mice (setting [2]), 23 mg/kg; in the data set with female white mice (setting [3]) it was 40 mg/kg; with female white mice (setting [4]), 21 mg/kg; in the data set on female white mice (read-out: Ptosis ED50, Table 1) it was 4 mg/kg. The ED50 in the data set on female white mice (setting [5]) was > 324 mg/kg; with female white mice (setting [6]), 62 mg/kg; with female white mice (setting [7]), 97 mg/kg. The LD50 at 24 h in “in vivo” is > 324 mg/kg.
As to `O=[N+]([O-])c1ccc2c(c1)[C@]13C[C@H]2c2ccccc2[C@H]1CN(CC1CCCC1)C3` (relative stereo) [Example 63, 5-Nitro-2-cyclopentylmethyl-2,3,8,12b-tetrahydro-1H-3a,8-methanodibenzo[3,4:6,7]cyclohepta[1,2-c]pyrrole Hydrochloride], the LD50 at 24 h in “in vivo” was > 324 mg/kg. The ED50 in the data set on female white mice (setting [8]) is 200 mg/kg; in the data set with female white mice (setting [9]), 12 mg/kg; in the data set on female white mice (setting [10]) it was 36 mg/kg; with female white mice (setting [11]) it was 7 mg/kg; in the data set on female white mice (setting [12]) it was > 324 mg/kg; in the data set on female white mice (setting [13]) it was 100 mg/kg. In addition, in the data set on female white mice (setting [14]), the ED50 was determined as 20 mg/kg.
Regarding `Cc1ccc2c(c1)[C@]13C[C@H]2c2ccccc2[C@H]1CN(CC1CCCC1)C3` (relative stereo) [Example 89, 5-Methyl-2-cyclopentylmethyl-2,3,8,12b-tetrahydro-1H-3a,8-methanodibenzo[3,4:6,7]cyclohepta[1,2-c]pyrrole], in “in vivo”, the LD50 at 24 h was > 81 mg/kg. Further, the ED50 is 50 mg/kg with female white mice (setting [8]); 9 mg/kg in the data set on female white mice (setting [9]); 50 mg/kg in the data set with female white mice (setting [10]); 15 mg/kg in the data set with female white mice (setting [11]); < 81 mg/kg with female white mice (setting [12]); 25 mg/kg with female white mice (setting [13]). Moreover, the 50% effective dose (ED50) with female white mice (setting [14]) was 15 mg/kg.
As for `C[N+]1([O-])C[C@@H]2c3ccccc3[C@@H]3C[C@@]2(C1)c1ccccc13` (relative stereo) [Methyl-N-oxide], the ED50 is 36 mg/kg in “in vivo”; 60 mg/kg in the data set on female white mice (setting [2]); 60 mg/kg in the data set with female white mice (setting [3]); 100 mg/kg in the data set on female white mice (setting [4]); 36 mg/kg in the data set on female white mice (read-out: Ptosis ED50, Table 1); 200 mg/kg in the data set with female white mice (setting [5]). Further, the ED50 amounted to 36 mg/kg in the data set on female white mice (setting [6]) and 60 mg/kg in the data set with female white mice (setting [7]). Moreover, the LD50 at 24 h in the data set “in vivo” was > 324 mg/kg.
For the compound `c1ccc2c(c1)C1CC3(CN(CC4CCCC4)CC23)c2ccccc21` (single isomer, unassigned; (+)) [(+)-Cyclopentylmetnyl, 2-Cyclopentylmethyl-2,3,8,12b-tetrahydro-trans-1H,-3a,8-methanodibenzo[3,4:6,7]cyclohepta[1,2-c]pyrrole], in data set [1], the “Phenylquinone Analgesia ED50” value is listed as 24 mg/kg. In the data set with female white mice, the LD50 is given as > 324 mg/kg, the “Catatonia ED50” value is 36 mg/kg, the “Exploratory Loss Visual ED50” value is recorded as 36 mg/kg and the “Muscle Tone ED50” value is 60 mg/kg. In the data set on female white mice, the “Ptosis ED50” value was 20 mg/kg, the “Reflexes Grip ED50” value came to 200 mg/kg, the “Reflexes Lift ED50” value stood at 60 mg/kg and the “Reflexes Pinna ED50” value came to 20 mg/kg. In addition, in the data set on female white mice, the “Tremors ED50” value was > 324 mg/kg.
As for `CN1CC2c3cc(Cl)ccc3C3CC2(C1)c1ccccc13.Cl` (stereo not drawn) [Example 80, 11-Chloro-2-methyl-2,3,8,12b-tetrahydro-1H-3a,8-methanodibenzo[3,4:6,7]cyclohepta[1,2-c]pyrrole Hydrochloride], the LD50 at 24 h in the data set “in vivo” was 200 mg/kg. Further, the median effective dose (ED50) is 100 mg/kg with female white mice (setting [8]); 7 mg/kg in the data set on female white mice (setting [9]); 20 mg/kg in the data set on female white mice (setting [10]); 20 mg/kg with female white mice (setting [11]); 60 mg/kg with female white mice (setting [12]); 20 mg/kg in the data set on female white mice (setting [13]). For the same compound, the ED50 with female white mice (setting [14]) came out at 20 mg/kg.
`Cl.Clc1ccc2c(c1)C1CN(CC3CCCCC3)CC13CC2c1ccccc13` (stereo not drawn) [Example 81, 11-Chloro-2-cyclohexylmethyl-2,3,8,12b-tetrahydro-1H-3a,8-methanodibenzo[3,4:6,7]cyclohepta[1,2-c]-pyrrole Hydrochloride]: the LD50 at 24 h in the data set “in vivo” was > 324 mg/kg. For the same compound, the 50% effective dose (ED50) in the data set on female white mice (setting [8]) is 19 mg/kg; with female white mice (setting [9]), 17 mg/kg; in the data set with female white mice (setting [10]), 12 mg/kg; with female white mice (setting [11]), < 3 mg/kg; in the data set with female white mice (setting [12]), > 324 mg/kg; in the data set on female white mice (setting [13]) it was 36 mg/kg. The ED50 in the data set on female white mice (setting [14]) amounted to 11 mg/kg.
Take “Nitro-2-methyl-2,3,8,12b-tetrahydro-1H-3a,8-methanodibenzo[3,4:6,7]cyclohepta[1,2-c]pyrrole Hydrochloride [Example 57]”: in data set [1], the “Phenylquinone Analgesia ED50” value is recorded as 5 mg/kg. Also, in the data set with female white mice, the LD50 was found to be 200 mg/kg, the “Catatonia ED50” value is reported as > 324 mg/kg, the “Exploratory Loss Visual ED50” value was 20 mg/kg and the “Muscle Tone ED50” value stood at 60 mg/kg. Moreover, in the data set with female white mice, the “Ptosis ED50” value is listed as 12 mg/kg, the “Reflexes Grip ED50” value is > 324 mg/kg, the “Reflexes Lift ED50” value is on record as > 324 mg/kg and the “Reflexes Pinna ED50” value amounted to 12 mg/kg. The “Tremors ED50” value in the data set on female white mice was determined as 100 mg/kg.

The values are drawn from patent US4088772A, “Methanodibenzocycloheptapyrroles” (E. I. Du Pont de Nemours and Company, priority 1975, dated 1978).
